From patent publication US12522575B2, “2-diarylmethyl-4-aminotetrahydropyran derivatives and related compounds as anticancer, antiinflammatory, antifibrotic and neuroprotective agents” (Atux Iskay LLC, priority 2021, dated 2026)

System: bleomycin-induced pulmonary fibrosis
Assay: Bleomycin induced lung fibrosis model in mice
Format: in vivo
From the text: Bleomycin exposure reproducibly induces lung fibrosis in mice and bleomycin induced lung fibrosis is commonly used as an animal model to assess the efficacy of experimental therapeutics for idiopathic pulmonary fibrosis, see for example Tashiro et al, “Exploring Animal Models that Resemble Idiopathic Pulmonary Fibrosis”, Front. Med. 4:118 (2017). doi: 10.3389/fmed.2017.0018. Herein presented are data on the efficacy of Example 6 (Ex-6) in cellular models of lung fibrosis and in a mouse bleoycin induced lung fibrosis model, see FIGS. 1 through 8.
In brief, the animal model consisted of bleomycin administration using a combined protocol previously described by Wyman et al (Wyman, A. E., et al., “Sirtuin 7 is decreased in pulmonary fibrosis and regulates the fibrotic phenotype of lung fibroblasts”. Am J Physiol Lung Cell Mol Physiol, 2017. 312 (6): p. L945-L958.) and Geraghty et al (Geraghty, P. and Foronjy, R. ‘Protein Transfection of Mouse Lung’. J Vis Exp, (75), e50080 2013 May 15). After sedation was achieved (87.5 mg/kg Ketamine/12.5 mg/kg xylazine), mice were suspended from their upper incisors (see Geraghty et al. for visual publication of intratracheal delivery). The oropharynx was opened so that a catheter/Penn Century MicroSprayer (Penn-Century, Wyndmoor, Philadelphia, PA) can be introduced into the trachea. The vocal cords and trachea were visualized by placing a light source against the trachea of the mouse. The MicroSprayer was inserted intratracheally, and the bleomycin solution (0.075 U/mouse) was instilled in 50 μL of sterile PBS. The MicroSprayer creates a mist rather than droplets, for better tissue distribution and reduces the risk of animal suffocation. Control mice were instilled with 50 μl of sterile PBS with no additives. This intratracheal maneuvering and delivery took about 30 seconds to complete. Animals were allowed to recover from sedation. Water was supplemented with the compound/drug beginning either before, 7 or 20 days after bleomycin treatment.
Ex-6 was dosed at 5 mg/kg in the bleomycin induced fibrosis. In vivo data is shown in FIG. 3: C57BL/6J mice were orally administered 5 mg/kg Ex-6 once daily, beginning on the same day as bleomycin (BLM) treatment to test if activation of PP2A could prevent establishment of idiopathic pulmonary fibrosis (IPF). […] Differences were shown in compliance, tissue elastance, and forced vital capacity of 3-month-old C57BL/6J mice following administration of vehicle or Example 6 after tracheal instillation of saline or bleomycin, indicating prevention of bleomycin-induced pulmonary fibrosis in mice by administration of Example 6. Graphs were represented as mean±S.E.M, where n=7 animals per group. P values, shown when comparing both treatments connected by a line, were determined by Student t-tests. […]

O=S(=O)(NC1CCOC(C2c3ccc(F)cc3CCc3cc(F)ccc32)C1)c1ccc(OC(F)(F)F)cc1 (stereo not shown) [Example 6, N-(2-(2,8-difluoro-10,11-dihydro-5H-dibenzo[a,d][7]annulen-5-yl)tetrahydro-2H-pyran-4-yl)-4-(trifluoromethoxy)benzenesulfonamide]
bleomycin-induced PV loop changes, compliance, tissue elastance and forced vital capacity (FVC) (5 mg/kg orally once daily from the day of bleomycin, C57BL/6J mice (FIG. 6)): prevented
collagen deposition in lung (trichrome staining) (bleomycin mice, vs vehicle control (FIG. 7)): attenuates collagen deposition
bleomycin-induction of fibrosis related genes Acta2, Ccn2, Col1a1, FN1 in lung tissue (bleomycin mice, vs vehicle control (FIG. 8)): suppressed
toxicity in mice (external appearance, behavior, body weight) (three-week administration, vs vehicle groups): no obvious toxicity
